Experiments:
[1] = biological target: T1, ATP-binding cassette sub-family C member 2 (Homo sapiens, UniProt Q92887); assay: TP_TRANSPORTER: Immunohistochemistry in vivo, apical membrane of enterocytes; type: functional, organism-based, Enterocyte apical membrane
[2] = biological target: T1, ATP-binding cassette sub-family C member 2; assay: TP_TRANSPORTER: Northern blot in vivo, apical membrane of enterocyte; type: functional, organism-based

T1 sequence (Q92887 whole entry): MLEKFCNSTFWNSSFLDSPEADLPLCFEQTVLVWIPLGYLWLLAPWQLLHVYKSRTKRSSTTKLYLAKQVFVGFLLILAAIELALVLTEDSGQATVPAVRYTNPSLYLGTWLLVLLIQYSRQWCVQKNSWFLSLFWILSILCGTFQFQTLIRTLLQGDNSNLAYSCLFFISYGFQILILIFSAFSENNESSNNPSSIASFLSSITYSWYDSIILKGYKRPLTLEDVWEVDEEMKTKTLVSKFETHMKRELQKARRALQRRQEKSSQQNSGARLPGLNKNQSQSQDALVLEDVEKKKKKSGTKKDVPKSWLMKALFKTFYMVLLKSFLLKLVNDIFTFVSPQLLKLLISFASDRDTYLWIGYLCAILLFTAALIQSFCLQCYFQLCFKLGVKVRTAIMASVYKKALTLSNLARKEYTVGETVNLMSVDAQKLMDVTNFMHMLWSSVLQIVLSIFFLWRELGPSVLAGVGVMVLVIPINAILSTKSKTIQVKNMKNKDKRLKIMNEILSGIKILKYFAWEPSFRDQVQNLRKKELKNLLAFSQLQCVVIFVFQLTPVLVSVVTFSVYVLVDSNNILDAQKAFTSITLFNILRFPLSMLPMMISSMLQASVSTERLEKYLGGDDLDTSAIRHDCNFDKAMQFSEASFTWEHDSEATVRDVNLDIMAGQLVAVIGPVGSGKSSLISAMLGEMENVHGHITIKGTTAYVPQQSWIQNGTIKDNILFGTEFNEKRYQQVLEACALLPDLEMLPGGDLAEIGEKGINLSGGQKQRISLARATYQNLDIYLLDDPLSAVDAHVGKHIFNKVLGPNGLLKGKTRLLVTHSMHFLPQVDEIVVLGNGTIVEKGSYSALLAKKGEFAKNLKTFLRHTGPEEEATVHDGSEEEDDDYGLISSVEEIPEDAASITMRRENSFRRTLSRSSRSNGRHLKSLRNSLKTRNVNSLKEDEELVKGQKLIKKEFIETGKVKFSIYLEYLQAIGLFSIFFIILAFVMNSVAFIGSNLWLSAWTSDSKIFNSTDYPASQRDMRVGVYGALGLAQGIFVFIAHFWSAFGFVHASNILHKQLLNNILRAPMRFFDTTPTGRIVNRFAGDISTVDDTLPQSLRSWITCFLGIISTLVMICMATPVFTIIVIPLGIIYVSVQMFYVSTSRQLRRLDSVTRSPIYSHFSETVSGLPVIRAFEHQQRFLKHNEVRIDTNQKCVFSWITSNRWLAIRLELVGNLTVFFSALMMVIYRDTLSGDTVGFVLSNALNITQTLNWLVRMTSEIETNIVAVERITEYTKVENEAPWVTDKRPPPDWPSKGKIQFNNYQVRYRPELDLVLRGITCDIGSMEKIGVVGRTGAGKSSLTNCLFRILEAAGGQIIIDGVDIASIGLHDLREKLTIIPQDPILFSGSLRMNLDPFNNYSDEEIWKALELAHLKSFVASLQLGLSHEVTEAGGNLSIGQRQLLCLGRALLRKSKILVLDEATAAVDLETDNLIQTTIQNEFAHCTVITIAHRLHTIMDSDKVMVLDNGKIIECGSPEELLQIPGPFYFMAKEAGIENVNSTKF

Activity [1]: inducer [+] | Activity [2]: inducer [+]
Structure (SMILES): CO[C@H]1/C=C/O[C@@]2(C)Oc3c(C)c(O)c4c(O)c(c(/C=N/N5CCN(C)CC5)c(O)c4c3C2=O)NC(=O)/C(C)=C\C=C\[C@H](C)[C@H](O)[C@@H](C)[C@@H](O)[C@@H](C)[C@H](OC(C)=O)[C@@H]1C [RIFAMPIN]

Reference: ChEMBL document CHEMBL2073908, “The effect of rifampin treatment on intestinal expression of human MRP transporters” (Am J Pathol, 2000)
